Converted amounts (≈) assume the structure as drawn.
Assays:
Assay in all cases: MIC testing, broth microdilution in CAMHB
Assay type in all cases: cell-based
[1] = tested on: Acinetobacter baumannii, ATCC 17978; details: 18-20 hr, lowest concentration that completely inhibits visible growth; for MIC: Acinetobacter baumannii, ATCC17978, 37° C., read-out: Compound MICs, Acinetobacter baumannii, ATCC 17978; for Compound MICs, Acinetobacter baumannii, ATCC 17978: 37° C.
Method: (§1) Compounds 1-71 were subsequently tested to determine MICs of the compounds relative to the following five species/strains of bacteria: Staphylococcus aureus, NRS384; Enterococcus faecalis, ATCC 51575; Salmonella typhimurium, CMCC 50115; Escherichia coli, ATCC BAA-198; and Acinetobacter baumannii, ATCC 17978. MIC testing of compounds was conducted according to the following protocol.
(§2) For each strain to be tested, made fresh streaks onto CAMHA from −80° C. glycerol stocks.
(§3) • CAMHB: Dissolved 22 g of the powder per 1 L of purified water. Mixed well. Autoclaved at 121° C. for 10 minutes. Stored at room temperature (RT) for no more than 1 week. • Saline: Dissolved 9 g of the powder per 1 L of purified water. Mixed well. Autoclaved at 121° C. for 30 minutes. Stored at room temperature (RT) for no more than 1 week.
(§4) Prepared the stock solutions of the tested compounds.
(§5) For compounds: • a) Dispensed 20 ul compound to the wells in column 1, and 20 ul DMSO to the wells in column 2 to 12; • b) Diluted the compounds by transferring 10 ul compounds from column 1 to 20 ul DMSO in column 2; mix with pipette. • c) Repeated until column 11 to get 3×serial dilutions. Column 12 was the DMSO control.
(§6) A multichannel pipette was used to deliver 1 μl of the diluted compound into each well of the corresponding daughter plate.
(§7) Scraped 4-8 single colonies from an agar plate into 5 ml saline in a 14 ml Falcon conical tube. Vortexed the tube to suspend the bacteria. Adjusted the turbidity to ˜0.2 (corresponding to 0.5 McFarland) with an Ultrospec 10 Cell density meter.
(§8) The strain suspension was diluted 200-fold in CAMHB medium and dispense into a sterile reservoir. A multichannel pipette was then used to deliver 99 μl of the diluted inocula into each well of the corresponding daughter plate.
(§9) Incubate the daughter plates at 37° C., 85% humidity for 18-20 hr.
(§10) A magnifying mirror device was used for ease of scoring the presence or absence of growth in the wells. 96-well micro-plates were photographed.

[2] = tested on: Enterococcus faecalis, ATCC 51575; details: 18-20 hr, lowest concentration that completely inhibits visible growth; for MIC: Enterococcus faecalis, ATCC51575, 37° C., read-out: Compound MICs, Enterococcus faecalis, ATCC 51575; for Compound MICs, Enterococcus faecalis, ATCC 51575: 37° C.
Method: as §1, §2, §3, §4, §5, §6, §7, §8, §9, §10

[3] = tested on: Escherichia coli, ATCC BAA-198; details: 18-20 hr, lowest concentration that completely inhibits visible growth; for MIC: Escherichia coli, ATCCBAA198, 37° C., read-out: Compound MICs, Escherichia coli, ATCC BAA-198; for Compound MICs, Escherichia coli, ATCC BAA-198: 37° C.
Method: as §1, §2, §3, §4, §5, §6, §7, §8, §9, §10

[4] = tested on: Salmonella typhimurium, CMCC 50115; details: 37° C., 18-20 hr, lowest concentration that completely inhibits visible growth; for MIC: Salmonella enterica, read-out: Compound MICs, Salmonella typhimurium, CMCC 50115
Method: as §1, §2, §3, §4, §5, §6, §7, §8, §9, §10

[5] = tested on: Staphylococcus aureus, NRS384; details: 18-20 hr, lowest concentration that completely inhibits visible growth; for MIC: Staphylococcus aureus, NRS384, 37° C., read-out: Compound MICs, Staphylococcus aureus, NRS384; for Compound MICs, Staphylococcus aureus, NRS384: 37° C.
Method: as §1, §2, §3, §4, §5, §6, §7, §8, §9, §10

Row | Compound | MIC [1] [µg/mL] | MIC [2] [µg/mL] | MIC [3] [µg/mL] | MIC [4] [µg/mL] | MIC [5] [µg/mL] | Compound MICs, Acinetobacter baumannii, ATCC 17978 [1] [µg/mL] | Compound MICs, Enterococcus faecalis, ATCC 51575 [2] [µg/mL] | Compound MICs, Escherichia coli, ATCC BAA-198 [3] [µg/mL] | Compound MICs, Salmonella typhimurium, CMCC 50115 [4] [µg/mL] | Compound MICs, Staphylococcus aureus, NRS384 [5] [µg/mL]
1 | C#Cc1ccc(Cn2ccc3c4c(N)nc(N)nc4ccc32)cc1 [Compound 1] | 2.37 (≈ 7.56 µM) | 0.01 (≈ 0.0319 µM) | 2.37 (≈ 7.56 µM) | 0.088 (≈ 0.281 µM) | 0.088 (≈ 0.281 µM) | – | – | – | – | –
2 | Nc1nc(N)c2c(ccc3c2ccn3C/C=C/c2ccccc2)n1 [Compound 4] | 7.11 (≈ 22.5 µM) | 0.03 (≈ 0.0951 µM) | 7.11 (≈ 22.5 µM) | 0.79 (≈ 2.5 µM) | 0.03 (≈ 0.0951 µM) | – | – | – | – | –
3 | CC(C)c1ccc(Cn2ccc3c4c(N)nc(N)nc4ccc32)cc1 [Compound 8] | 0.79 (≈ 2.38 µM) | 0.03 (≈ 0.0905 µM) | 2.37 (≈ 7.15 µM) | 0.26 (≈ 0.784 µM) | 0.088 (≈ 0.266 µM) | – | – | – | – | –
4 | CC(C)C#Cc1ccc(Cn2ccc3c4c(N)nc(NC5CC5)nc4ccc32)cc1 [Compound 17] | – | – | – | – | – | 21.3 | 0.79 | 21.3 | 7.11 | 2.37
5 | CC#Cc1ccc(Cn2ccc3c4c(N)nc(NC5CC5)nc4ccc32)cc1 [Compound 18] | – | – | – | – | – | 21.3 | 0.79 | 21.3 | 7.11 | 2.37
6 | Nc1nc(N)c2c(ccc3c2ccn3Cc2ccc(C#Cc3ccccc3)cc2)n1 [Compound 23] | – | – | – | – | – | >64 | 0.26 | >64 | >64 | 2.37
7 | NCC#Cc1ccc(Cn2ccc3c4c(N)nc(N)nc4ccc32)cc1 [Compound 24] | – | – | – | – | – | 64 | 0.26 | 7.11 | 0.26 | 0.79
8 | CC#Cc1ccc(Cn2ccc3c4c(N)nc(N)nc4ccc32)cc1 [Compound 25] | – | – | – | – | – | 21.3 | 0.09 | 7.11 | 0.79 | 0.26
9 | Nc1nc(N)c2c(ccc3c2ccn3Cc2ccc3ccccc3c2)n1 [Compound 26] | – | – | – | – | – | 2.37 | 0.09 | 2.37 | 0.26 | 0.09
10 | Nc1nc(N)c2c(ccc3c2ccn3Cc2ccc([N+](=O)[O-])cc2)n1 [Compound 34] | – | – | – | – | – | 21.3 | 0.09 | 7.11 | 0.26 | 0.26
11 | Nc1nc(N)c2c(ccc3c2ccn3CCc2ccc(F)cc2)n1 [Compound 39] | – | – | – | – | – | 21.3 | 0.09 | 7.11 | 2.37 | 0.79

More lines, now with the values ahead:

Row | MIC [1] [µg/mL] | MIC [2] [µg/mL] | MIC [3] [µg/mL] | MIC [4] [µg/mL] | MIC [5] [µg/mL] | Compound MICs, Acinetobacter baumannii, ATCC 17978 [1] [µg/mL] | Compound MICs, Enterococcus faecalis, ATCC 51575 [2] [µg/mL] | Compound MICs, Escherichia coli, ATCC BAA-198 [3] [µg/mL] | Compound MICs, Salmonella typhimurium, CMCC 50115 [4] [µg/mL] | Compound MICs, Staphylococcus aureus, NRS384 [5] [µg/mL] | Compound
12 | 7.11 (≈ 17.4 µM) | 2.37 (≈ 5.79 µM) | 64 (≈ 156 µM) | > 64 | 2.37 (≈ 5.79 µM) | – | – | – | – | – | Nc1nc(NCCO)c2c(ccc3c2ccn3Cc2ccc(-c3ccccc3)cc2)n1 [Compound 2]
13 | 7.11 (≈ 22.7 µM) | 0.03 (≈ 0.0957 µM) | 7.11 (≈ 22.7 µM) | 0.79 (≈ 2.52 µM) | 0.26 (≈ 0.83 µM) | – | – | – | – | – | Nc1nc(N)c2c(ccc3c2ccn3CC#Cc2ccccc2)n1 [Compound 3]
14 | 7.11 (≈ 18.6 µM) | 0.03 (≈ 0.0786 µM) | 7.11 (≈ 18.6 µM) | 0.79 (≈ 2.07 µM) | 0.26 (≈ 0.682 µM) | – | – | – | – | – | Nc1nc(N)c2c(ccc3c2ccn3Cc2cccc(Oc3ccccc3)c2)n1 [Compound 5]
15 | 21.3 (≈ 60.3 µM) | 0.26 (≈ 0.736 µM) | 21.3 (≈ 60.3 µM) | 2.37 (≈ 6.71 µM) | 0.79 (≈ 2.24 µM) | – | – | – | – | – | C#Cc1ccc(Cn2ccc3c4c(N)nc(NC5CC5)nc4ccc32)cc1 [Compound 9]
16 | 7.11 (≈ 25.3 µM) | 0.03 (≈ 0.107 µM) | 21.3 (≈ 75.7 µM) | 0.79 (≈ 2.81 µM) | 0.088 (≈ 0.313 µM) | – | – | – | – | – | Nc1nc(N)c2c(ccc3c2ccn3CC2CCCC2)n1 [Compound 11]
17 | 2.37 (≈ 7.71 µM) | 0.03 (≈ 0.0976 µM) | 7.11 (≈ 23.1 µM) | 0.79 (≈ 2.57 µM) | 0.26 (≈ 0.846 µM) | – | – | – | – | – | Nc1nc(N)c2c(ccc3c2ccn3Cc2cccc(F)c2)n1 [Compound 12]
18 | 2.37 (≈ 7.29 µM) | 0.01 (≈ 0.0307 µM) | 7.11 (≈ 21.9 µM) | 0.088 (≈ 0.271 µM) | 0.088 (≈ 0.271 µM) | – | – | – | – | – | Nc1nc(N)c2c(ccc3c2ccn3Cc2ccc(F)c(F)c2)n1 [Compound 13]
19 | – | – | – | – | – | 21.3 | 0.09 | 7.11 | 2.37 | 0.26 | CC(C)C#Cc1ccc(Cn2ccc3c4c(N)nc(N)nc4ccc32)cc1 [Compound 15]
20 | – | – | – | – | – | >64 | 0.09 | >64 | 21.3 | 0.79 | CC(C)(C)OC(=O)NCC#Cc1ccc(Cn2ccc3c4c(N)nc(N)nc4ccc32)cc1 [Compound 16]
21 | – | – | – | – | – | >64 | 0.79 | >64 | 21.3 | 2.37 | Nc1nc(NC2CC2)nc2ccc3c(ccn3Cc3ccc(C#Cc4ccccc4)cc3)c12 [Compound 19]
22 | – | – | – | – | – | 64 | 0.79 | >64 | 21.3 | 2.37 | Nc1nc(NC2CC2)nc2ccc3c(ccn3Cc3ccc(C#CC4CC4)cc3)c12 [Compound 20]
23 | – | – | – | – | – | >64 | >64 | >64 | >64 | >64 | CC[Si](C#Cc1ccc(CNc2nc(N)nc3ccc4c(ccn4Cc4ccc(C#C[Si](CC)(CC)CC)cc4)c23)cc1)(CC)CC [Compound 27]
24 | – | – | – | – | – | 7.11 | 0.09 | 7.11 | 0.79 | 0.26 | CCc1ccc(Cn2ccc3c4c(N)nc(N)nc4ccc32)cc1 [Compound 31]
25 | – | – | – | – | – | 7.11 | 0.03 | 2.37 | 0.26 | 0.26 | C=Cc1ccc(Cn2ccc3c4c(N)nc(N)nc4ccc32)cc1 [Compound 33]

From patent US20230295164A1, “COMPOUNDS HAVING ANTIBACTERIAL ACTIVITY” (The Trustees of Princeton University, priority 2020, published 2023)
